{"source": "patent EP0395653B1", "about": "“SYNOVIAL PHOSPHOLIPASES” (ELI LILLY AND COMPANY, priority 1987, dated 1989)", "key": {"sPLA₂ type B": {"system": "sPLA₂ type B", "experiment": "effect of Tris or Na deoxycholate on hydrolytic activity", "assay_type": "biochemical, human"}, "sPLA₂ type A": {"biological_target": "sPLA₂ type A (Homo sapiens, UniProt P14555)", "settings": "0.5 M Tris"}, "highly purified PLA₂": {"biological_target": "T1, highly purified PLA₂ (Homo sapiens, UniProt P14555)", "T1 construct": "from tissue; host or cells: pooled synovial fluid (CM Sephadex C50, Sephadex G75, preparative SDS-PAGE)", "T1 sequence (P14555 21-144)": "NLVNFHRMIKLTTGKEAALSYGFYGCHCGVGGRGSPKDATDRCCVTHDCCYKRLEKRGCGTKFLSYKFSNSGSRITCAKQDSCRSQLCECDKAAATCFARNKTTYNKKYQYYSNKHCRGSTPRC", "experiment": "effect of SDS on rate of hydrolysis of phosphatidylcholine (Shakir's method)", "assay_type": "biochemical", "settings": "of initial enzyme activity", "experimental": "Determination of phospholipase activities towards the radiolabeled synthetic substrates, dipalmitoylphosphatidylcholine, and 2-linoleoyl-1-palmitoylphosphatidylethanolamine, was carried out as described by Shakir, (1981) Anal Biochim 114:64-70. Standard incubation mixtures contained 750 nmol of phospholipid, 2 mM CaCl₂, 2 mM sodium deoxycholate (DOC), 0.09% Triton X-100, and enzyme protein in 0.1 M Tris-HCl buffer in a total volume of 400 µl. Incubations were carried out at optimal pH (see below) for 1 h at 37°C in a shaking water bath. The reaction was stopped by addition of 2.0 ml of n-heptane-isopropanol-1 N sulfuric acid (1:4:0.1, v/v/v). Released fatty acids were extracted by the method of Shakir, (1981) Anal Biochim 114:64-70. PLA₂ activity is expressed as nmol of released fatty acid per mg of protein per h.\nThe effect of SDS on the rate of hydrolysis of phosphatidylcholine by highly purified PLA₂ was studied using Shakir's method, supra. SDS inhibited PLA₂ activity on a concentration-dependent manner. Inhibition of PLA₂ was 94 and 7% of initial enzyme activity at SDS concentrations of 1 mg/ml and 0.1 mg/ml, respectively. In evaluating the utility of preparative SDS-PAGE, recovery of enzyme from the slab gel was consistently between 95-100% of the total enzyme applied to the gel."}}}
{"compound": "NC(CO)(CO)CO", "note": "[Tris]", "values": [{"measurement": "effect on hydrolytic activity of type B relative to type A", "setting": "sPLA₂ type B; 0.5 M Tris", "value": "considerable stimulation"}, {"measurement": "effect on sPLA₂ type A activity", "setting": "sPLA₂ type A", "value": "inhibited"}]}
{"compound": "CCCCCCCCCCCCOS(=O)(=O)[O-].[Na+]", "note": "[SDS, sodium dodecyl sulfate]", "values": [{"measurement": "inhibition at 100 µg/mL", "setting": "highly purified PLA₂; SDS 0.1 mg/ml", "value": 7, "unit": "%"}, {"measurement": "inhibition at 1000 µg/mL", "setting": "highly purified PLA₂; SDS 1 mg/ml", "value": 94, "unit": "%"}]}
{"compound": "sodium deoxycholate [Na deoxycholate]", "values": [{"measurement": "effect on hydrolytic activity of type B relative to type A", "setting": "sPLA₂ type B; 0.1% Na deoxycholate", "value": "considerable stimulation"}]}
